According to PubChem BioAssay AID1963837 (Molecular Pharmacology Branch, DTP, NCI, 2024):

System: 843126-344-R-J1-PDC complex spheroid viability
Test: Anticancer human tumor 843126-344-R-J1-PDC patient-derived melanoma cell line growth inhibition [POLQ]
Settings: for IC50: curve of first compound; for viability, T/C: stronger effect = lower value
Procedure, shortened: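 Growth inhibition in 3D: complex spheroids (tumor PDC, HUVEC, MSC) treated with POLQ inhibitor combinations; where Cmax unknown, highest tested concentration 10 microM, except SN-38 at 1 microM.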

[1] = second compound 0.0316 µM, first compound 0.0316 µM
[2] = second compound 0.0316 µM, first compound 0.1 µM
[3] = second compound 0.1 µM, first compound 0.0316 µM
[4] = second compound 0.1 µM, first compound 0.1 µM
[5] = second compound 0.316 µM, first compound 0.0316 µM
[6] = second compound 0.316 µM, first compound 0.1 µM
[7] = second compound 1 µM, first compound 0.0316 µM
[8] = second compound 1 µM, first compound 0.1 µM
[9] = second compound 3.16 µM, first compound 0.0316 µM
[10] = second compound 3.16 µM, first compound 0.1 µM
[11] = second compound 10 µM, first compound 0.0316 µM
[12] = second compound 10 µM, first compound 0.1 µM
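Wherever viability, T/C is given: spheroids exposed to drugs for seven days before readout.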

Structure (SMILES): O=c1[nH]cc(F)c(=O)[nH]1 + Cc1cccc(N(C)C(=O)C2C(O)CCN2c2nc(C)cc(C(F)(F)F)c2C#N)c1
- IC50 (second compound 0.0316 µM): > 10 µM
- IC50 (second compound 0.1 µM): > 10 µM
- IC50 (second compound 0.316 µM): > 10 µM
- IC50 (second compound 1 µM): > 10 µM
- IC50 (second compound 3.16 µM): > 10 µM
- IC50 (second compound 10 µM): > 10 µM
- viability, T/C [1]: 101%
- viability, T/C [2]: 112%
- viability, T/C (second compound 0.0316 µM, first compound 0.316 µM): 104%
- viability, T/C (second compound 0.0316 µM, first compound 1 µM): 101%
- viability, T/C (second compound 0.0316 µM, first compound 3.16 µM): 87.3%
- viability, T/C (second compound 0.0316 µM, first compound 10 µM): 79.3%
- viability, T/C [3]: 99.8%
- viability, T/C [4]: 98.3%
- viability, T/C (second compound 0.1 µM, first compound 0.316 µM): 96.5%
- viability, T/C (second compound 0.1 µM, first compound 1 µM): 97.5%
- viability, T/C (second compound 0.1 µM, first compound 3.16 µM): 81.5%
- viability, T/C (second compound 0.1 µM, first compound 10 µM): 93.2%
- viability, T/C [5]: 105%
- viability, T/C [6]: 108%
- viability, T/C (second compound 0.316 µM, first compound 0.316 µM): 96.7%
- viability, T/C (second compound 0.316 µM, first compound 1 µM): 82.2%
- viability, T/C (second compound 0.316 µM, first compound 3.16 µM): 110%
- viability, T/C (second compound 0.316 µM, first compound 10 µM): 103%
- viability, T/C [7]: 101%
- viability, T/C [8]: 88.6%
- viability, T/C (second compound 1 µM, first compound 0.316 µM): 107%
- viability, T/C (second compound 1 µM, first compound 1 µM): 110%
- viability, T/C (second compound 1 µM, first compound 3.16 µM): 113%
- viability, T/C (second compound 1 µM, first compound 10 µM): 96.5%
- viability, T/C [9]: 99.3%
- viability, T/C [10]: 94.5%
- viability, T/C (second compound 3.16 µM, first compound 0.316 µM): 113%
- viability, T/C (second compound 3.16 µM, first compound 1 µM): 95.8%
- viability, T/C (second compound 3.16 µM, first compound 3.16 µM): 103%
- viability, T/C (second compound 3.16 µM, first compound 10 µM): 91.5%
- viability, T/C [11]: 91.1%
- viability, T/C [12]: 85.8%
- viability, T/C (second compound 10 µM, first compound 0.316 µM): 104%
- viability, T/C (second compound 10 µM, first compound 1 µM): 102%
- viability, T/C (second compound 10 µM, first compound 3.16 µM): 111%
- viability, T/C (second compound 10 µM, first compound 10 µM): 90%

Structure (SMILES): Cn1ncnc1[C@H]1c2n[nH]c(=O)c3cc(F)cc(c23)N[C@@H]1c1ccc(F)cc1 + COC1C(OC(N)=O)C(O)C(Oc2ccc3c(O)c(NC(=O)c4ccc(O)c(CC=C(C)C)c4)c(=O)oc3c2C)OC1(C)C
- IC50 (second compound 0.0316 µM): > 0.1 µM
- IC50 (second compound 0.1 µM): > 0.1 µM
- IC50 (second compound 0.316 µM): > 0.1 µM
- IC50 (second compound 1 µM): > 0.1 µM
- IC50 (second compound 3.16 µM): > 0.1 µM
- IC50 (second compound 10 µM): > 0.1 µM
- viability, T/C (second compound 0.0316 µM, first compound 0.000316 µM): 83.3%
- viability, T/C (second compound 0.0316 µM, first compound 0.001 µM): 87.8%
- viability, T/C (second compound 0.0316 µM, first compound 0.00316 µM): 108%
- viability, T/C (second compound 0.0316 µM, first compound 0.01 µM): 106%
- viability, T/C [1]: 97.8%
- viability, T/C [2]: 76.5%
- viability, T/C (second compound 0.1 µM, first compound 0.000316 µM): 96.7%
- viability, T/C (second compound 0.1 µM, first compound 0.001 µM): 103%
- viability, T/C (second compound 0.1 µM, first compound 0.00316 µM): 93.5%
- viability, T/C (second compound 0.1 µM, first compound 0.01 µM): 91.8%
- viability, T/C [3]: 121%
- viability, T/C [4]: 87.2%
- viability, T/C (second compound 0.316 µM, first compound 0.000316 µM): 90.1%
- viability, T/C (second compound 0.316 µM, first compound 0.001 µM): 109%
- viability, T/C (second compound 0.316 µM, first compound 0.00316 µM): 81.2%
- viability, T/C (second compound 0.316 µM, first compound 0.01 µM): 102%
- viability, T/C [5]: 90.3%
- viability, T/C [6]: 94.2%
- viability, T/C (second compound 1 µM, first compound 0.000316 µM): 89.7%
- viability, T/C (second compound 1 µM, first compound 0.001 µM): 106%
- viability, T/C (second compound 1 µM, first compound 0.00316 µM): 105%
- viability, T/C (second compound 1 µM, first compound 0.01 µM): 84.3%
- viability, T/C [7]: 118%
- viability, T/C [8]: 76.1%
- viability, T/C (second compound 3.16 µM, first compound 0.000316 µM): 85.1%
- viability, T/C (second compound 3.16 µM, first compound 0.001 µM): 99.1%
- viability, T/C (second compound 3.16 µM, first compound 0.00316 µM): 101%
- viability, T/C (second compound 3.16 µM, first compound 0.01 µM): 89.9%
- viability, T/C [9]: 120%
- viability, T/C [10]: 94.1%
- viability, T/C (second compound 10 µM, first compound 0.000316 µM): 83.9%
- viability, T/C (second compound 10 µM, first compound 0.001 µM): 102%
- viability, T/C (second compound 10 µM, first compound 0.00316 µM): 101%
- viability, T/C (second compound 10 µM, first compound 0.01 µM): 86.9%
- viability, T/C [11]: 80.9%
- viability, T/C [12]: 81.7%
